Converted amounts (≈) assume the structure as drawn.

Usually IC50 stands for the concentration that gives 50% inhibition. Lower therefore signals inhibition by little substance.

Common to all, as to format: cell-based, human
For assay [1], the system named is platelet aggregation induced by arachidonic acid in platelet-rich plasma. Kind of assay: Inhibition of arachidonic acid-induced platelet aggregation in platelet-rich plasma (aggregometer). The following applies: amount in mg inhibiting aggregation by 50% in 1 mL platelet-rich plasma, arachidonic acid 500 U/L, average of at least 3 IC50s; for IC50: Homo sapiens. The method, then:
(§1) The experimental protocol described below was devised to determine the […] values of compounds isolated as described in 1.1.3. Crude bioassays to evaluate inhibition of platelet aggregation in vitro were performed on some crude extracts (data not shown) to help select fine fractions/compounds identified by HPLC for functional activity. This approach was considered necessary to avoid the need to assay each and ever compound (the would be thousands) in the fruit extracts.
(§2) An IC50 value represents the amount of a compound, in mg, required to inhibit by 50% the platelet aggregation induced under standardised conditions in 1 mL platelet-rich plasma, in comparison with control samples.
(§3) Blood for in vitro studies was collected from drug-free, healthy human volunteers, both male and female, aged 18-60 years, with normal platelet function. Subjects declared that they had not consumed drugs or supplements known to affect platelet function for a minimum of 10 days before providing a blood sample. Blood was collected after single venepuncture to an antecubital vein through siliconized needles into plastic citrated blood collection tubes (Sarstedt Monovettes, final concentration sodium citrate, 13 mmol/L). All blood was maintained at 37° C. from the time of blood sampling.
(§4) Platelet-rich plasma (PRP) was obtained by centrifugation of citrated blood for 15 minutes at 200×g, and was adjusted with platelet-poor plasma to a standard platelet number of 320±20×10^9/L prior to use. PRP was used for platelet function measurements within two hours.
(§5) The following agonists were used for platelet function measurements. Adenosine diphosphate (ADP), final concentration 10 μmol/L; collagen, final concentration 5 mg/L; arachidonic acid, final concentration 500 U/L (all from Helena Biosciences, Sunderland, UK); thrombin receptor-activating peptide (TRAP), final concentration 25 nmol/L (Sigma-Aldrich, Poole, UK). Agonists were prepared from stock solutions immediately before use, diluting into warmed physiological saline (0.9% NaCl).
(§6) Individual platelet inhibitors were prepared at a concentration of between 500 g/L and 100 g/L in either physiological saline, ultra-pure methanol or ultra-pure DMSO (Sigma-Aldrich, Poole, UK) and stored frozen until required. Stock solutions were then diluted with physiological saline immediately prior to use.
(§7) 450 μL PRP was incubated with 50 μL diluted inhibitor solution at 37° C. for 10 minutes, in low-retention epindorrfs. Inhibitor solutions were diluted such that the final concentration of methanol or DMSO in the PRP sample never exceeded 2%. Suitable control samples, containing 50 μL physiological saline matched for methanol or DMSO content as appropriate, were incubated simultaneously. For each inhibitor compound, 5 incubation concentrations were used; final concentrations of 0.05 mg/mL, 0.10 mg/mL, 1.00 mg/mL, 5.00 mg/mL and 10 mg/mL were used as standard.
(§8) After incubation with platelet inhibitors, PRP samples were transferred to glass cuvettes and the extent of aggregation induced by either ADP, collagen, TRAP or arachidonic acid was monitored over 10 minutes on a platelet aggregometer (PACKS 4, Helena Biosciences, Sunderland, UK). A control sample was run with each sample set. From the aggregation curves generated, the area under the curve was calculated for each PRP sample, and the inhibition of aggregation achieved at each inhibitor concentration was calculated by comparing the area under the curve for these PRP samples with that of the control sample. The inhibition of aggregation was expressed as % inhibition, compared to control, and from the 6 data points obtained per inhibitor compound, a dose-response curve was constructed. This curve was then used to predict the IC50 value for that inhibitor compound, as shown in 1.2, Results, and FIG. 1.
(§9) For each blood sample obtained, 6-point dose-response curves for 2 different inhibitory compounds could be generated. […]

For assay [2], the system named is platelet aggregation induced by ADP in platelet-rich plasma. The assay is described as follows: Inhibition of ADP-induced platelet aggregation in platelet-rich plasma (aggregometer). Conditions: amount in mg inhibiting aggregation by 50% in 1 mL platelet-rich plasma, ADP 10 μmol/L, average of at least 3 IC50s; for IC50: Homo sapiens. How it is done:
as §1, §2, §3, §4, §5, §6, §7, §8, §9

Assay [3] has as its system platelet aggregation induced by thrombin receptor-activating peptide (TRAP) in platelet-rich plasma. Kind of assay: Inhibition of TRAP-induced platelet aggregation in platelet-rich plasma (aggregometer). Conditions: amount in mg inhibiting aggregation by 50% in 1 mL platelet-rich plasma, TRAP 25 nmol/L, average of at least 3 IC50s; for IC50: Homo sapiens. The method, then:
as §1, §2, §3, §4, §5, §6, §7, §8, §9

For assay [4], the system named is platelet aggregation induced by collagen in platelet-rich plasma. The assay is described as follows: Inhibition of collagen-induced platelet aggregation in platelet-rich plasma (aggregometer). The following applies: amount in mg inhibiting aggregation by 50% in 1 mL platelet-rich plasma, collagen 5 mg/L, average of at least 3 IC50s; for IC50: Homo sapiens. How it is done:
as §1, §2, §3, §4, §5, §6, §7, §8, §9

In the case of `COc1cc(/C=C/C(=O)O)ccc1O` [Compound 21, Ferulic acid], the IC50 came to 9.94 mg/mL (≈ 51.2 mM) in assay [1], 18.7 mg/mL (≈ 96.1 mM) in assay [2], 14.7 mg/mL (≈ 75.4 mM) in assay [3] and 13.9 mg/mL (≈ 71.6 mM) in assay [4].

As for Adenosine 3′-monophospate [Compound 5], the “IC50 AA” value in assay [1] was 2.41 mg. Further, in assay [2], the “IC50 ADP” value is given as 0.12 mg. Further, the “IC50 TRAP” value in assay [3] is on record as 24.51 mg. In addition, in assay [4], the “IC50 Collagen” value stood at 0.28 mg.

`C[C@@H]1O[C@@H](OC[C@H]2O[C@@H](Oc3c(-c4ccc(O)c(O)c4)oc4cc(O)cc(O)c4c3=O)[C@H](O)[C@@H](O)[C@@H]2O)[C@H](O)[C@H](O)[C@H]1O` [Compound 27, Rutin]: the IC50 in assay [2] worked out at 35.2 mg/mL (≈ 57.7 mM); in assay [3] it was 8.96 mg/mL (≈ 14.7 mM); in assay [4] it was 32.2 mg/mL (≈ 52.7 mM).

For the compound `O=C(O)/C=C/c1ccc(O)c(O)c1` [Compound 18, Caffeic acid], the IC50 in assay [1] amounted to 7.33 mg/mL (≈ 40.7 mM); in assay [2], 19 mg/mL (≈ 105 mM); in assay [3], 8.03 mg/mL (≈ 44.6 mM); in assay [4] it was 11.4 mg/mL (≈ 63.1 mM).

As for `O=c1c(O)c(-c2ccc(O)cc2)oc2cc(O)cc(O)c12` [Compound 31, Kaempferol], the IC50 was 5.18 mg/mL (≈ 18.1 mM) in assay [1] and 26.2 mg/mL (≈ 91.5 mM) in assay [3].

Compound `Nc1nc2c(ncn2[C@@H]2O[C@H](CO)[C@@H](O)[C@H]2O)c(=O)[nH]1` [Compound 4, Guanosine] displayed an IC50 in assay [3] of 26.1 mg/mL (≈ 92 mM).

In the case of `O=C1C[C@@H](c2ccc(O)cc2)Oc2cc(O)cc(O)c21` [Compound 32, Naringenin], the IC50 in assay [1] was 10.4 mg/mL (≈ 38.2 mM); in assay [3], 33.2 mg/mL (≈ 122 mM).

As to `O=C(O)/C=C/c1ccc(O)cc1` [Compound 19, p-coumaric acid], the IC50 in assay [1] was 10.2 mg/mL (≈ 62 mM); in assay [2], 13.2 mg/mL (≈ 80.5 mM); in assay [3] it was 12.8 mg/mL (≈ 78.1 mM); in assay [4] it was 14.6 mg/mL (≈ 89.1 mM).

With `O=c1ccn([C@@H]2O[C@H](CO)[C@@H](O)[C@H]2O)c(=O)[nH]1` [Compound 3, Uridine], the IC50 in assay [2] was determined as 6.51 mg/mL (≈ 26.7 mM); in assay [4] it was 16 mg/mL (≈ 65.5 mM).

Consider `O=C(/C=C/c1ccc(O)c(O)c1)O[C@@H]1C[C@](O)(C(=O)O)C[C@@H](O)[C@H]1O` [Compound 14, Chlorogenic acid], for which the “IC50 AA” value in assay [1] turned out to be 0.77 mg. In assay [2], the “IC50 ADP” value was 10.08 mg. Moreover, the “IC50 TRAP” value in assay [3] is 1.1 mg. Also, in assay [4], the “IC50 Collagen” value worked out at 10.11 mg.

Regarding `Nc1ccn([C@@H]2O[C@H](CO)[C@@H](O)[C@H]2O)c(=O)n1` [Compound 1, Cytidine], the IC50 in assay [1] is 39 mg/mL (≈ 160 mM); in assay [2], 2.42 mg/mL (≈ 9.95 mM); in assay [3], 39 mg/mL (≈ 160 mM); in assay [4] it was 10.7 mg/mL (≈ 43.8 mM).

`O=c1c(O)c(-c2ccc(O)c(O)c2)oc2cc(O)cc(O)c12` [Compound 30, Quercetin]: the results for the IC50 in assay [1] and in assay [3] were 3.66 mg/mL (≈ 12.1 mM) and 19.7 mg/mL (≈ 65 mM), respectively.

For the compound `O=C(O)c1ccccc1` [Compound 20, Benzoic acid], the “IC50 AA” value in assay [1] is 15.45 mg. In addition, the “IC50 ADP” value in assay [2] came out at 25.11 mg. The “IC50 TRAP” value in assay [3] was found to be 18.19 mg. In assay [4], the “IC50 Collagen” value is given as 17.74 mg.
